# Data published in ChEMBL document CHEMBL1146830, “Synthesis and biological evaluation of nonpeptide integrin antagonists containing spirocyclic scaffolds” (Bioorg Med Chem Lett, 2004).
# Target: Integrin alpha-V/beta-3 and alpha-IIb/beta 3 (Homo sapiens, UniProt P05106+P06756+P08514)
# Experiment: Inhibition of platelet aggregation in human platelet-rich plasma alpha IIb beta-3 integrin to assess the selectivity for the alpha-v beta-3 over the GPIIb/IIIa integrin receptor
row,IC50,SMILES
1,7300 nM,Cc1cc(C)c(S(=O)(=O)N[C@@H](CNC(=O)C2=NO[C@]3(C2)C[C@@H](CNC2=NCCN2)N(C(=O)OCc2ccccc2)C3)C(=O)O)c(C)c1
2,1400 nM,Cc1cc(C)c(S(=O)(=O)N[C@@H](CNC(=O)C2=NO[C@]3(CN[C@H](CNc4ncc[nH]4)C3)C2)C(=O)O)c(C)c1
3,11000 nM,CCCCOC(=O)N1C[C@@]2(CC(C(=O)NC[C@H](NS(=O)(=O)c3c(C)cc(C)cc3C)C(=O)O)=NO2)C[C@H]1CNc1ncc[nH]1
4,9200 nM,Cc1cc(C)c(S(=O)(=O)N[C@@H](CNC(=O)C2=NO[C@@]3(C2)C[C@@H](CNC2=NCCN2)N(C(=O)OCc2ccccc2)C3)C(=O)O)c(C)c1
5,> 100000 nM,Cc1cc(C)c(S(=O)(=O)N[C@@H](CNC(=O)C2=NO[C@]3(C2)C[C@@H](CNc2ccccn2)N(C(=O)OCc2ccccc2)C3)C(=O)O)c(C)c1
6,> 100000 nM,Cc1cc(C)c(S(=O)(=O)N[C@@H](CNC(=O)C2=NO[C@]3(C2)C[C@@H](CNc2nc4ccccc4[nH]2)N(C(=O)OCc2ccccc2)C3)C(=O)O)c(C)c1
7,34000 nM,Cc1cc(C)c(S(=O)(=O)N[C@@H](CNC(=O)C2=NO[C@]3(C2)C[C@@H](CNc2ncc[nH]2)N(C(=O)OCc2ccccc2)C3)C(=O)O)c(C)c1
8,5600 nM,Cc1cc(C)c(S(=O)(=O)N[C@@H](CNC(=O)C2=NO[C@]3(C2)C[C@@H](CNc2ncc[nH]2)N(C(=O)OCc2cccnc2)C3)C(=O)O)c(C)c1
9,7300 nM,COC(=O)N1C[C@@]2(CC(C(=O)NC[C@H](NS(=O)(=O)c3c(C)cc(C)cc3C)C(=O)O)=NO2)C[C@H]1CNc1ncc[nH]1
10,> 100000 nM,COC(=O)N1C[C@@]2(CC(C(=O)NC[C@H](NS(=O)(=O)c3c(C)cc(C)cc3C)C(=O)O)=NO2)C[C@H]1CNc1nc2ccccc2[nH]1

# Target: Integrin alpha-V/beta-3 (Homo sapiens)
# Experiment: Evaluated in an functional alpha-v beta-3 antagonism assay, involving adhesion of beta-3-transfected 293 cells to fibrinogen (alpha-v beta-3 293 beta3)
row,IC50,SMILES
1,87 nM,CCCCOC(=O)N1C[C@@]2(CC(C(=O)NC[C@H](NS(=O)(=O)c3c(C)cc(C)cc3C)C(=O)O)=NO2)C[C@H]1CNc1nc2ccccc2[nH]1
2,180 nM,Cc1cc(C)c(S(=O)(=O)N[C@@H](CNC(=O)C2=NO[C@]3(CN[C@H](CNc4ncc[nH]4)C3)C2)C(=O)O)c(C)c1
3,130 nM,CCCCOC(=O)N1C[C@@]2(CC(C(=O)NC[C@H](NS(=O)(=O)c3c(C)cc(C)cc3C)C(=O)O)=NO2)C[C@H]1CNc1ncc[nH]1
4,49 nM,Cc1cc(C)c(S(=O)(=O)N[C@@H](CNC(=O)C2=NO[C@]3(C2)C[C@@H](CNc2ccccn2)N(C(=O)OCc2ccccc2)C3)C(=O)O)c(C)c1
5,74 nM,Cc1cc(C)c(S(=O)(=O)N[C@@H](CNC(=O)C2=NO[C@]3(C2)C[C@@H](CNc2nc4ccccc4[nH]2)N(C(=O)OCc2ccccc2)C3)C(=O)O)c(C)c1
6,41 nM,Cc1cc(C)c(S(=O)(=O)N[C@@H](CNC(=O)C2=NO[C@]3(C2)C[C@@H](CNc2ncc[nH]2)N(C(=O)OCc2ccccc2)C3)C(=O)O)c(C)c1
7,32 nM,Cc1cc(C)c(S(=O)(=O)N[C@@H](CNC(=O)C2=NO[C@]3(C2)C[C@@H](CNc2ncc[nH]2)N(C(=O)OCc2cccnc2)C3)C(=O)O)c(C)c1
8,57 nM,COC(=O)N1C[C@@]2(CC(C(=O)NC[C@H](NS(=O)(=O)c3c(C)cc(C)cc3C)C(=O)O)=NO2)C[C@H]1CNc1ncc[nH]1
9,34 nM,COC(=O)N1C[C@@]2(CC(C(=O)NC[C@H](NS(=O)(=O)c3c(C)cc(C)cc3C)C(=O)O)=NO2)C[C@H]1CNc1nc2ccccc2[nH]1

# Target: Integrin alpha-5/beta-1 (Homo sapiens, UniProt P05556+P08648)
# Sequence (P05556 21-798 limits assumed): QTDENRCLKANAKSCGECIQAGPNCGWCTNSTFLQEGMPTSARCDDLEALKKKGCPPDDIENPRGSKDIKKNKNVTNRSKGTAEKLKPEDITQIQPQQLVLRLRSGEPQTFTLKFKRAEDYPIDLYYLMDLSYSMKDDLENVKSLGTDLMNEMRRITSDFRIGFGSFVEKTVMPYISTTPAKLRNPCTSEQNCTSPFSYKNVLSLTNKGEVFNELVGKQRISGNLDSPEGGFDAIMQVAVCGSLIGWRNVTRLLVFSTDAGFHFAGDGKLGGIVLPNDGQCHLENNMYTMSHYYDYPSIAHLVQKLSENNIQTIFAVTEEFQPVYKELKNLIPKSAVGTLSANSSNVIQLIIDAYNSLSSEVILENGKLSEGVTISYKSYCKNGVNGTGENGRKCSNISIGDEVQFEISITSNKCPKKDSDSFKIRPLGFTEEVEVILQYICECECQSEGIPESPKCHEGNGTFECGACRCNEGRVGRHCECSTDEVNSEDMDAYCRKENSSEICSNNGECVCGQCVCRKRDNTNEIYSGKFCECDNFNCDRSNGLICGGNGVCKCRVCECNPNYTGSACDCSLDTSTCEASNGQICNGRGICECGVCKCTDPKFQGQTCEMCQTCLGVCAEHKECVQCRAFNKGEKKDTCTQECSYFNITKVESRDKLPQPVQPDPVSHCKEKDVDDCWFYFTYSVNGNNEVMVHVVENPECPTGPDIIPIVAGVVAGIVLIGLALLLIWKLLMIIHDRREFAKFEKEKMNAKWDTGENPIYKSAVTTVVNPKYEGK
# Sequence (P08648 42-894 limits assumed): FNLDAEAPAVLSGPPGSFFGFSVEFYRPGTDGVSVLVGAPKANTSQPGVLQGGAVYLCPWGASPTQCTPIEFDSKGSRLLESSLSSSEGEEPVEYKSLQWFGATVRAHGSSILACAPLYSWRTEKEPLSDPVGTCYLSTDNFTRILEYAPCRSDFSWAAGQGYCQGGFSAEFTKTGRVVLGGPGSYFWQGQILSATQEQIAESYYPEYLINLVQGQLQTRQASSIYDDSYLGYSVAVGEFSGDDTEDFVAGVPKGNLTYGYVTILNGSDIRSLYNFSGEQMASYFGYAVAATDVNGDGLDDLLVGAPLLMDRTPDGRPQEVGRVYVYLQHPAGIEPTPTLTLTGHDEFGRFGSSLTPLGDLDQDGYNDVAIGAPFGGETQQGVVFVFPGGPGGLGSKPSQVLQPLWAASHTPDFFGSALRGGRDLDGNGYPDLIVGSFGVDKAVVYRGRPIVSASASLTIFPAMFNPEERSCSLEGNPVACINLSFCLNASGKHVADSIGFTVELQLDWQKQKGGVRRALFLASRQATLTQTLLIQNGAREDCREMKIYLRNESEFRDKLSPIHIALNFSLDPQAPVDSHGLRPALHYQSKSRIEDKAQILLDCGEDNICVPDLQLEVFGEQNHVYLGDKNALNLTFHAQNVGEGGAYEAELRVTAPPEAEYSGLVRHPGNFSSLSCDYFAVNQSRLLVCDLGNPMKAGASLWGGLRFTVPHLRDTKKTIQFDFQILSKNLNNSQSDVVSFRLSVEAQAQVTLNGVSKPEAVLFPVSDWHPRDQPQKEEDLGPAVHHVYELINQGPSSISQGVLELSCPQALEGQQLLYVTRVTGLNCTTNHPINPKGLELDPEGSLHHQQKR
# Sequence (P08648 895-1049 limits assumed): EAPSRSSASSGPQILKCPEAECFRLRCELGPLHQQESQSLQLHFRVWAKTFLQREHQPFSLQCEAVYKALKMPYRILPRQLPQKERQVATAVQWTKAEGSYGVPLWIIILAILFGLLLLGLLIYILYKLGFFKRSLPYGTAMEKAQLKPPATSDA
# Experiment: Alpha-5 beta-1 antagonism using an ELISA assay
# Format: functional
row,IC50,SMILES
1,0.39 nM,CCCCOC(=O)N1C[C@@]2(CC(C(=O)NC[C@H](NS(=O)(=O)c3c(C)cc(C)cc3C)C(=O)O)=NO2)C[C@H]1CNc1nc2ccccc2[nH]1
2,13 nM,Cc1cc(C)c(S(=O)(=O)N[C@@H](CNC(=O)C2=NO[C@]3(C2)C[C@@H](CNC2=NCCN2)N(C(=O)OCc2ccccc2)C3)C(=O)O)c(C)c1
3,230 nM,Cc1cc(C)c(S(=O)(=O)N[C@@H](CNC(=O)C2=NO[C@]3(CN[C@H](CNc4ncc[nH]4)C3)C2)C(=O)O)c(C)c1
4,14 nM,CCCCOC(=O)N1C[C@@]2(CC(C(=O)NC[C@H](NS(=O)(=O)c3c(C)cc(C)cc3C)C(=O)O)=NO2)C[C@H]1CNc1ncc[nH]1
5,1200 nM,Cc1cc(C)c(S(=O)(=O)N[C@@H](CNC(=O)C2=NO[C@@]3(C2)C[C@@H](CNC2=NCCN2)N(C(=O)OCc2ccccc2)C3)C(=O)O)c(C)c1
6,0.18 nM,Cc1cc(C)c(S(=O)(=O)N[C@@H](CNC(=O)C2=NO[C@]3(C2)C[C@@H](CNc2ccccn2)N(C(=O)OCc2ccccc2)C3)C(=O)O)c(C)c1
7,18 nM,Cc1cc(C)c(S(=O)(=O)N[C@@H](CNC(=O)C2=NO[C@]3(C2)C[C@@H](CNc2ncc[nH]2)N(C(=O)OCc2ccccc2)C3)C(=O)O)c(C)c1
8,39 nM,Cc1cc(C)c(S(=O)(=O)N[C@@H](CNC(=O)C2=NO[C@]3(C2)C[C@@H](CNc2ncc[nH]2)N(C(=O)OCc2cccnc2)C3)C(=O)O)c(C)c1
9,21 nM,COC(=O)N1C[C@@]2(CC(C(=O)NC[C@H](NS(=O)(=O)c3c(C)cc(C)cc3C)C(=O)O)=NO2)C[C@H]1CNc1ncc[nH]1
10,1.4 nM,COC(=O)N1C[C@@]2(CC(C(=O)NC[C@H](NS(=O)(=O)c3c(C)cc(C)cc3C)C(=O)O)=NO2)C[C@H]1CNc1nc2ccccc2[nH]1
